Drawing on ChEMBL document CHEMBL4321785, “Challenges and Opportunities for Therapeutics Targeting the Voltage-Gated Sodium Channel Isoform NaV1.7” (J Med Chem, 2019), this text covers Ratio IC50, ED and IC50 for two compounds.

The species named for assay [1] is Homo sapiens. The assay is described as follows: Selectivity index, ratio of IC50 for inhibition of human Nav1.1 expressed in HEK293 cells by electrophysiology assay to IC50 for inhibition of human Nav1.7 expressed in HEK293 cells by electrophysiology assay. The assay is classed as cell-based.
The test system of assay [2] is Rattus norvegicus. The assay is described as follows: Analgesic activity in it dosed rat model of pain by hot plate test. The assay is classed as functional. On the technique in general: Thermal pain tests record how soon the animal reacts.
For assay [3], the target named is Sodium channel protein type 4 subunit alpha (Homo sapiens, UniProt P35499). As to the kind of experiment: Inhibition of human Nav1.4 expressed in HEK293 cells by electrophysiology assay. The assay is classed as cell-based.
Sodium channel protein type 4 subunit alpha, sequence (P35499 whole entry): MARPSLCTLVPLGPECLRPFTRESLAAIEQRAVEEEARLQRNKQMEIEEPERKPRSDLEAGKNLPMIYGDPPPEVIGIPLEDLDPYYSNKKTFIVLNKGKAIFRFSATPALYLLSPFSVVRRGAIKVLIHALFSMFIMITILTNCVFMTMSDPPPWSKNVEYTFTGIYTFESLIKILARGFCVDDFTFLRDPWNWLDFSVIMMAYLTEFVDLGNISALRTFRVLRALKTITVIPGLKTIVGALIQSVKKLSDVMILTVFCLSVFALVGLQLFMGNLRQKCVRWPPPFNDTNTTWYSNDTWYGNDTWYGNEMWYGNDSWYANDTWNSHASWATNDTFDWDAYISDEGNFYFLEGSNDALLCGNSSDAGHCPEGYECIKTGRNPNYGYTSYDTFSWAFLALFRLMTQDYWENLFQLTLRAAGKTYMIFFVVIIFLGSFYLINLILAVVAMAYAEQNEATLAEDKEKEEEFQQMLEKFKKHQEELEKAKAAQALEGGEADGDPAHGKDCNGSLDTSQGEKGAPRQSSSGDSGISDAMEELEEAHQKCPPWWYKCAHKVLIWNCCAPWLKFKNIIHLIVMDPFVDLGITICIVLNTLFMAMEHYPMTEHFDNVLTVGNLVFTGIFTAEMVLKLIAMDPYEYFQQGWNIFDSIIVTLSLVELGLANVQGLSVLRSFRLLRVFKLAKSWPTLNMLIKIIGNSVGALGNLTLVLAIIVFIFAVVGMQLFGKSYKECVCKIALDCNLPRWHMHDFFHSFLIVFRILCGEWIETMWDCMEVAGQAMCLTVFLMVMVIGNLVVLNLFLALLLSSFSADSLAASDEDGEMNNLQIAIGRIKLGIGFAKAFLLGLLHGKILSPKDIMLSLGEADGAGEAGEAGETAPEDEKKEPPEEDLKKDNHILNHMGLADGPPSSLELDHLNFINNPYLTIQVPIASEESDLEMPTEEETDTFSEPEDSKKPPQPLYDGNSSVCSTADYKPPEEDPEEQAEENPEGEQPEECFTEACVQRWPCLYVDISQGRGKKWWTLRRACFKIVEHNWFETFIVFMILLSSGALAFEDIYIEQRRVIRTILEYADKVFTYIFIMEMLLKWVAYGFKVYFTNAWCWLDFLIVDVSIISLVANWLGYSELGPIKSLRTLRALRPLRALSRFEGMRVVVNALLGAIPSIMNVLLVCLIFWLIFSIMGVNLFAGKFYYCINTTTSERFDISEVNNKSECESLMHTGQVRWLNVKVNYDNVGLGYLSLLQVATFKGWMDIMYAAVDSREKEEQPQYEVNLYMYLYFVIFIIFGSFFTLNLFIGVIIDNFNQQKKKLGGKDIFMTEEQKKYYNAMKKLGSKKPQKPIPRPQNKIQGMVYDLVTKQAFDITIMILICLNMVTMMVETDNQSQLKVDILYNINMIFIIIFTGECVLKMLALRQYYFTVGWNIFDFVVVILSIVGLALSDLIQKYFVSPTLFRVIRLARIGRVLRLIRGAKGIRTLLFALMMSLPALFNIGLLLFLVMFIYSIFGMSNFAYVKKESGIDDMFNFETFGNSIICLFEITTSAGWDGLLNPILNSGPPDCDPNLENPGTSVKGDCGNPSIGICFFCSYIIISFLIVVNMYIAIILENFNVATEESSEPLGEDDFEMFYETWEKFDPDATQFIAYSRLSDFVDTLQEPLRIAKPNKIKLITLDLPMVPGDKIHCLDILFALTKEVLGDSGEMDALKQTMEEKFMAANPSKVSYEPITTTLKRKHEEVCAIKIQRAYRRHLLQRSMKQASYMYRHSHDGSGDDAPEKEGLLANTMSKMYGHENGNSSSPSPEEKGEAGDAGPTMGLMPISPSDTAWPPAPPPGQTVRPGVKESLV
Assay [4] has as its target Sodium channel protein type 1 subunit alpha (Homo sapiens, UniProt P35498). The assay is described as follows: Inhibition of human Nav1.1 expressed in HEK293 cells by electrophysiology assay. The assay is classed as cell-based.
Assay [5] has as its system Rattus norvegicus. The assay is described as follows: Analgesic activity in po dosed rat model of pain by Hargreaves test. It counts as functional.
Assay [6] addresses Sodium channel protein type 5 subunit alpha (Homo sapiens, UniProt Q14524). As to the kind of experiment: Inhibition of human Nav1.5 expressed in HEK293 cells by electrophysiology assay. The assay is classed as cell-based.
The species named for assay [7] is Homo sapiens. As to the kind of experiment: Selectivity index, ratio of IC50 for inhibition of human Nav1.5 expressed in HEK293 cells by electrophysiology assay to IC50 for inhibition of human Nav1.7 expressed in HEK293 cells by electrophysiology assay. The assay is classed as cell-based.
For assay [8], the species on record is Homo sapiens. As to the kind of experiment: Selectivity index, ratio of IC50 for inhibition of human Nav1.2 expressed in HEK293 cells by electrophysiology assay to IC50 for inhibition of human Nav1.7 expressed in HEK293 cells by electrophysiology assay. The assay is classed as cell-based.
Assay [9] deals with Rattus norvegicus. As to the kind of experiment: Analgesic activity in it dosed rat model of pain by tail flick test. It counts as functional.
The target in assay [10] is Sodium channel protein type 2 subunit alpha (Homo sapiens, UniProt Q99250). The assay is described as follows: Inhibition of human Nav1.2 expressed in HEK293 cells by electrophysiology assay. It counts as cell-based.
The species entered for assay [11] is Homo sapiens. The assay is described as follows: Selectivity index, ratio of IC50 for inhibition of human Nav1.4 expressed in HEK293 cells by electrophysiology assay to IC50 for inhibition of human Nav1.7 expressed in HEK293 cells by electrophysiology assay. It counts as cell-based.
Assay [12] is filed under the species Homo sapiens. The assay is described as follows: Selectivity index, ratio of IC50 for inhibition of human Nav1.6 expressed in HEK293 cells by electrophysiology assay to IC50 for inhibition of human Nav1.7 expressed in HEK293 cells by electrophysiology assay. It counts as cell-based.
For assay [13], the target named is Sodium channel protein type 8 subunit alpha (Homo sapiens, UniProt Q9UQD0). As to the kind of experiment: Inhibition of human Nav1.6 expressed in HEK293 cells by electrophysiology assay. It counts as cell-based.
Assay [14] has as its target Sodium channel protein type 9 subunit alpha (Homo sapiens, UniProt Q15858). The assay is described as follows: Inhibition of human Nav1.7 expressed in HEK293 cells by electrophysiology assay. The assay is classed as cell-based.
In assay [15] the test system is Rattus norvegicus. As to the kind of experiment: Analgesic activity in it dosed rat model of formalin-induced pain. The assay is classed as functional.
In assay [16] the target is Sodium channel protein type 3 subunit alpha (Homo sapiens, UniProt Q9NY46). The assay is described as follows: Inhibition of human Nav1.3 expressed in HEK293 cells by electrophysiology assay. It counts as cell-based.
The test system of assay [17] is Rattus norvegicus. As to the kind of experiment: Analgesic activity in it dosed rat model of CFA-induced pain by Hargreaves test. It counts as functional.
Assay [18] deals with Rattus norvegicus. As to the kind of experiment: Analgesic activity in iv dosed rat model of CFA-induced pain. The assay is classed as functional.
In assay [19] the test system is Rattus norvegicus. The assay is described as follows: Analgesic activity in it dosed rat model of CFA-induced pain. It counts as functional.

Sodium channel protein type 5 subunit alpha, sequence (Q14524 whole entry): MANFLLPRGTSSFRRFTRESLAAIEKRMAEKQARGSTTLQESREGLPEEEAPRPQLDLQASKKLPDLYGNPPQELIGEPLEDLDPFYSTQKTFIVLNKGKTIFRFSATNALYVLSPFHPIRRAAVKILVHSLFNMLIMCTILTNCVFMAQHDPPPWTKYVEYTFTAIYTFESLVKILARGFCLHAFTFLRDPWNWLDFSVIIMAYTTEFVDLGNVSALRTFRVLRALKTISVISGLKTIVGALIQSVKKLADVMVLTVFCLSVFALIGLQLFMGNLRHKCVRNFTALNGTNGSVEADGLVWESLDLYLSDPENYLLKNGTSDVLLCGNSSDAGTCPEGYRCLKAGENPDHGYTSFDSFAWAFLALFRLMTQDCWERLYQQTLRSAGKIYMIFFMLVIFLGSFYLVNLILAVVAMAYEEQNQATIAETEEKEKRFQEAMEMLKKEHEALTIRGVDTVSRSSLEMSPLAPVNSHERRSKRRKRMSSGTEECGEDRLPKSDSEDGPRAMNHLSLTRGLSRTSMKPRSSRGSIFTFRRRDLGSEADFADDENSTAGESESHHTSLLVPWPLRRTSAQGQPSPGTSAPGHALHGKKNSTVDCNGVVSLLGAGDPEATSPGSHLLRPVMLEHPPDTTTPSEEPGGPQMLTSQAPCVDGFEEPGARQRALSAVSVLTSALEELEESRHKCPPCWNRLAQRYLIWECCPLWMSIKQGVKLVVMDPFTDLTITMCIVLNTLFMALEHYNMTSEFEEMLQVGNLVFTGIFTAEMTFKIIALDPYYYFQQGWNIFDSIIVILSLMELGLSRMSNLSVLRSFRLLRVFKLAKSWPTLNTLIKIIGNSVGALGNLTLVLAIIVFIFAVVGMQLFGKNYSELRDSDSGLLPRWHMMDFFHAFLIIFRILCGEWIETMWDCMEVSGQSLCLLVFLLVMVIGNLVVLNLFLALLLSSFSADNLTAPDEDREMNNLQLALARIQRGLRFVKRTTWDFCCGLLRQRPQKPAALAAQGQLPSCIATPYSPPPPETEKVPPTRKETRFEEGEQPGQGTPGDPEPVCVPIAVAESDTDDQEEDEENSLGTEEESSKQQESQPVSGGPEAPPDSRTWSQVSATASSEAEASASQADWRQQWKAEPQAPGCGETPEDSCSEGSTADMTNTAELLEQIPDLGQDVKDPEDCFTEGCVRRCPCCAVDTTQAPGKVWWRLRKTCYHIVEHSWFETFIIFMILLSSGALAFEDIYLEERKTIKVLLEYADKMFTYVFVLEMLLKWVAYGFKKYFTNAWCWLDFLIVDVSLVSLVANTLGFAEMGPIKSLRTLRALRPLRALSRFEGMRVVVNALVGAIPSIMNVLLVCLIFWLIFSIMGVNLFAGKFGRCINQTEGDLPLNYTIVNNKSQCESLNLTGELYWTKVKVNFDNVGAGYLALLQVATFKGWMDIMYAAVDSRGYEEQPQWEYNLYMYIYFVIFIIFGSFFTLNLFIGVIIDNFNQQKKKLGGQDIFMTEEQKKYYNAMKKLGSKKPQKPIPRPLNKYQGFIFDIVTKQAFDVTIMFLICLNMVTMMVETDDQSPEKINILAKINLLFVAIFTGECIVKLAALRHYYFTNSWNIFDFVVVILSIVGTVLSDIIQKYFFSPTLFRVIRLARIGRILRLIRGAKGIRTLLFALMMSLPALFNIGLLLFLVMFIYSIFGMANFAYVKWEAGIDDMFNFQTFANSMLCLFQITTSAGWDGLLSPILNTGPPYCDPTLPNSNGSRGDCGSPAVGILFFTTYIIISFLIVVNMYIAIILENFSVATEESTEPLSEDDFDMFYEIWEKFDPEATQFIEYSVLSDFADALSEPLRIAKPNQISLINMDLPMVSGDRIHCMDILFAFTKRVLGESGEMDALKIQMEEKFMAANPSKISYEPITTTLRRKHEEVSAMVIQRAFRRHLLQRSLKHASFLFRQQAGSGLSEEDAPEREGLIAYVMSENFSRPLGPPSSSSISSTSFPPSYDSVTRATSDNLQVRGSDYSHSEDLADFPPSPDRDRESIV

Regarding `CSCC[C@@H]1NC(=O)CNC(=O)[C@H](CCC(=O)O)NC(=O)[C@@H]2CSSC[C@H](NC(=O)[C@H](Cc3ccc(O)cc3)NC(=O)[C@H](Cc3ccc(O)cc3)NC(=O)[C@@H]3CCCN3C(=O)CN)C(=O)N[C@@H](CCC(N)=O)C(=O)N[C@@H](CCCCN)C(=O)N[C@@H](Cc3c[nH]c4ccccc34)C(=O)N[C@@H](CCSC)C(=O)N[C@@H](CCC(N)=O)C(=O)N[C@@H]([C@@H](C)O)C(=O)N[C@H]3CSSC[C@H](NC(=O)[C@H](C(C)C)NC1=O)C(=O)N[C@@H](CCCNC(=N)N)C(=O)N[C@@H](CC(C)C)C(=O)N[C@@H](Cc1c[nH]c4ccccc14)C(=O)N[C@H](C(=O)N[C@@H](CCCCN)C(=O)N[C@@H](CCCCN)C(=O)N[C@@H](CCCCN)C(=O)N[C@@H](CC(C)C)C(=O)N[C@@H](CC(C)C)C(=O)O)CSSC[C@H](NC(=O)[C@H](CCCCN)NC(=O)[C@H](CCCNC(=N)N)NC(=O)[C@H](CCC(=O)O)NC(=O)[C@H](CO)NC(=O)[C@H](CC(=O)O)NC3=O)C(=O)N2`, the Ratio IC50 was 1000 in the assay listed under Homo sapiens [1]; above 1000 in the assay filed under Homo sapiens [7]; 160 in the assay filed under Homo sapiens [8]; 530 in the assay filed under Homo sapiens [11]; 100 in the assay filed under Homo sapiens [12]. Further, the ED is 0.3 to 7.5 µg in the assay with Rattus norvegicus [2], 1.4 mg in the assay with Rattus norvegicus [5], 0.3 to 7.5 µg with Rattus norvegicus [9] and 1 to 5 µg in the assay on Rattus norvegicus [15]. In addition, the concentration for half-maximal inhibition (IC50) (commonly the concentration at which inhibition is half-maximal) in assay [3] was 5300 nM; in assay [4] it was 10000 nM; in assay [6], above 10000 nM; in assay [10] it was 1600 nM; in assay [13], 1000 nM; in [14], 10 nM.
`CSCC[C@@H]1NC(=O)CNC(=O)[C@H](CCC(=O)O)NC(=O)[C@@H]2CSSC[C@H](NC(=O)[C@@H](N)Cc3ccc(O)cc3)C(=O)N[C@@H](CCC(N)=O)C(=O)N[C@@H](CCCCN)C(=O)N[C@@H](Cc3c[nH]c4ccccc34)C(=O)N[C@@H](CCSC)C(=O)N[C@@H](Cc3c[nH]c4ccccc34)C(=O)N[C@@H]([C@@H](C)O)C(=O)N[C@H]3CSSC[C@H](NC(=O)[C@H](C(C)C)NC1=O)C(=O)N[C@@H](CCCNC(=N)N)C(=O)N[C@@H](CC(C)C)C(=O)N[C@@H](Cc1c[nH]c4ccccc14)C(=O)N[C@H](C(=O)N[C@@H](CCCCN)C(=O)N[C@@H](CCCCN)C(=O)N[C@@H](CCCCN)C(=O)N[C@@H](CC(C)C)C(=O)N[C@@H](Cc1c[nH]c4ccccc14)C(=O)O)CSSC[C@H](NC(=O)[C@H](CCCCN)NC(=O)[C@H](CCCNC(=N)N)NC(=O)[C@H](CCC(=O)O)NC(=O)[C@H](CO)NC(=O)[C@H](CC(=O)O)NC3=O)C(=O)N2`: the half-maximal inhibitory concentration (IC50) came to 25 nM in assay [16]; 79 nM in assay [3]; 16 nM in assay [4]; 400 nM in assay [6]; 79 nM in [10]; 32 nM in assay [13]. For the same compound, the ED in the assay on Rattus norvegicus [17] turned out to be 2 µg; with Rattus norvegicus [18] it was 0.1 mg/kg; in the assay with Rattus norvegicus [19], 0.01 mg/kg; in the assay with Rattus norvegicus [15], 2 µg.
